The values that follow come from patent publication US11001562B2, “Near-infrared fluorescent nerve contrast agents and methods of use thereof” (Beth Israel Deaconess Medical Center, priority 2013, dated 2021).

The subject of experiment [1] is recurrent laryngeal nerve (RLN), brachial plexus (BP) and sciatic nerve (SN) of Yorkshire pigs. Nature of the experiment: Nerve targeting in large animals, intraoperative FLARE imaging. It is filed as in vivo, pig. As to conditions: iv. The procedure:
20 μmol (0.17 mg/kg) of Oxazine 4 was injected intravenously into 35 kg Yorkshire pigs, and the SBR of nerves to the specified surrounding tissue was measured at different time points (T=0, 15, 30, 60, 120, 180, and 240 min). B) Real-time intraoperative fluorescence images of RLN (top), BP (middle), and SN (bottom) acquired at different time points (T=0, 15, 30, 60, 120, 180, and 240 min). Ad=adipose tissue; Mu=muscle; TEG=tracheoesophageal groove; Th=thyroid; Tr=trachea. Scale bars=1 cm. Fluorescence images have identical exposure times (500 msec) and normalizations. C) Fluorescence microscopic images of cryosectioned RLN, BP, and SN. Samples were obtained after injecting 20 μmol of Oxazine 4 into Yorkshire pigs 4 h prior to resection. Shown are representative images (N=5) of H&E (left) and NIR fluorescence (right) images. Scale bars=[…]. All NIR fluorescence images have identical exposure times and normalizations.
Animals were housed in an AAALAC-certified facility. Animal studies were performed under the supervision of Beth Israel Deaconess Medical Center's Institutional Animal Care and Use Committee (IACUC) in accordance with approved institutional protocols (#101-2011 for rodents and #046-2010 for pigs). […] Following anesthesia, electrocardiogram, heart rate, pulse oximetry, and body temperature were monitored throughout surgery.
Initial in vivo screening occurred in rats based on our previous study of BMB (Supplementary Methods) (25). […] The fluorescence signal in nervous tissues and signal-to-background ratio (SBR) compared to neighboring muscle (Mu) were obtained over the period of imaging. […]
The fluorescence intensity (FI) and background (BG) intensity of a region of interest (ROI) over each nerve/tissue were calculated and quantified using custom FLARE^a software. The FI of the RLN, BP, and SN at the optimal dose and time point were quantified to measure tissue-specific targeting. […]

The subject of experiment [2] is brachial plexus (BP) and sciatic nerves (SN) of CD-1 mice. Nature of the experiment: Kinetics and dose-response of nerve targeting in small animals. It is filed as in vivo, mouse. The procedure:
100 nmol (1.6 mg/kg) of Oxazine was injected intravenously into CD-1 mice, and SBR (BP/Mu) and SBR (SN/Mu) were measured at different time points (T=0, 1, 4, 6, 12, and 24 h). Arrowheads indicate fluorescence signals in nerve bundles. SG=salivary glands; Mu=muscle. Scale bars=1 cm. All NIR fluorescence images have identical exposure times (500 msec) and normalizations. B) Dose-response curve of SBR (mean±SEM) for BP and SN. 0, 50, 100, 200, and 400 nmol of Oxazine 4 were injected intravenously into CD-1 mice, and SBR (BP/Mu) and SBR (SN/Mu) were measured at 4 h post-injection. Arrowheads indicate fluorescence signals in nerve bundles. SG=salivary glands; Mu=muscle. Scale bars=1 cm. All NIR fluorescence images have identical exposure times (500 msec) and normalizations.
Initial in vivo screening occurred in rats based on our previous study of BMB (Supplementary Methods) (25). For kinetic and dose-response studies, 50-400 nmol (0.8-6.3 mg/kg) of Oxazine 4 was injected intravenously into mice and measurements taken over 24 h. Control images were acquired prior to injecting NIR fluorophores. The fluorescence signal in nervous tissues and signal-to-background ratio (SBR) compared to neighboring muscle (Mu) were obtained over the period of imaging. For the large animal study, the optimal dose found in mice (200-400 nmol per mouse) was used in pigs by scaling to body surface area (29, 30).
The fluorescence intensity (FI) and background (BG) intensity of a region of interest (ROI) over each nerve/tissue were calculated and quantified using custom FLARE^a software. The FI of the RLN, BP, and SN at the optimal dose and time point were quantified to measure tissue-specific targeting. Adjacent tissues such as trachea (Tr), thyroid (Th), tracheoesophageal groove (TEG), muscle (Mu), and adipose tissue (Ad) were used as background to calculate the SBR of RLN, BP, and SN in pigs. Statistical analysis was carried out using a one-way ANOVA followed by Tukey's multiple comparisons test. Results were presented as mean±S.D. and curve fitting was performed using Prism version 4.0a software (GraphPad, San Diego, Calif.).

In the case of `CC/N=c1/cc2oc3cc(NCC)c(C)cc3nc-2cc1C` [Oxazine 4], in experiment [1], the “signal retention in BP and SN post injection” value is recorded as “up to 3 h”; the “time of maximal SBR, BP and SN” value is 1 h. For the same compound, the “time of maximal SBR, RLN” value in experiment [1] (RLN vs surrounding tissue) stood at 3 h. The “time of highest SBR post-intravenous injection” value in experiment [2] (100 nmol (1.6 mg/kg) iv) came out at 4 h. Moreover, the “highest SBR (nerve/muscle)” value in experiment [2] (100 nmol (1.6 mg/kg) iv, 4 h post-injection, BP and SN) is “≈ 3.0”. Besides, the “SBR at 1 h post-injection” value in experiment [2] (100 nmol iv, 1 h) is reported as “low”. The “fluorescence signal in nervous tissues at 24 h post-injection” value in experiment [2] (100 nmol iv, 24 h) is on record as “decayed at this time point to pre-injection levels”. Also, the “dose dependence of fluorescence signals in BP and SN” value in experiment [2] (50-400 nmol per mouse (0.8-6.3 mg/kg), 4 h post-injection) was “proportional to the injected dose”. The optimal dose in experiment [2] (iv, 4 h post-injection) came out at 200 nmol.
